Legend:
[1] = biological target: human MLKL (full length) (Homo sapiens (Human), UniProt Q8NB16); assay: KINOMEscan binding assay, human MLKL (full length); conditions: hMLKL, Table 25; read-out: MLKL (KD)
Method in brief: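 Compound dilutions (11 points, 3-fold, mostly from 30,000 nM, 1% DMSO final) competed with immobilized ligand for DNA- or phage-tagged protein, and bead-bound protein was measured by qPCR. Kd values came from Hill-equation fits with slope −1 (Levenberg-Marquardt).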

[2] = tested on: Immortalised Mouse Dermal Fibroblasts (MDFs); assay: Cellular assay: inhibition of TSI induced necroptosis, CellTitre-Glo viability; conditions: Mus musculus, Fibroblast; MDF, 3 hours TSI cocktail, Table 27; read-out: Inhibition of TSI-induced necroptosis (IC50 cell-based assay) in MDF
Method in brief: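 Immortalised mouse dermal fibroblasts (2200 cells/well) pretreated 30 min with compound, 10-point 1:3 series from 36 μM, 0.3% DMSO. Then 3 h at 37° C. with TNF (100 ng/ml), Smac mimetic (500 nM) and IDN-6556 (10 μM). CellTiter-Glo luminescence normalised to DMSO (100%) and DMSO+TSI (0%); IC50 from 4-parameter logistic fit.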

[3] = biological target: endogenous MLKL in MDF (Mus musculus (Mouse), UniProt Q9D2Y4); assay: Degradation assay: endogenous MLKL in MDF (western blot); conditions: MDF cells, 24 h incubation with compound, MLKL adjusted for loading with GAPDH, normalized to DMSO only control, read-out: Degradation of endogenous MLKL in MDF (DC50 cell-based assay)
endogenous MLKL in MDF, sequence (Q9D2Y4 whole entry): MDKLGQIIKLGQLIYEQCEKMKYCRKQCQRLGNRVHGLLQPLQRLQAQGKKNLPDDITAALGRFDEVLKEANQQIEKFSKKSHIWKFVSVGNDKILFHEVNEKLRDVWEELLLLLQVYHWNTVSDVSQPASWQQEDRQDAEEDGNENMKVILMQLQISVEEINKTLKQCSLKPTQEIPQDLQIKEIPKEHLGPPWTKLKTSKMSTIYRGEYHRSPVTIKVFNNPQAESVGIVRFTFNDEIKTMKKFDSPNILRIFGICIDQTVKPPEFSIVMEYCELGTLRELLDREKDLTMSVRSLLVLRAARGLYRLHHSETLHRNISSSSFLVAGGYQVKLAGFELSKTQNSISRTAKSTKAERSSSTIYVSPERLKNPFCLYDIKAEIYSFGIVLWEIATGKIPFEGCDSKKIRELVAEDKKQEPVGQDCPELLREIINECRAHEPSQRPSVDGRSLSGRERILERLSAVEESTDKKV
Protocol: Degradation Assay: Screening Compounds Procedure to Evaluate the Activity of Compounds in Degrading Endogenous MLKL in Human and Mouse Cell
The mouse dermal fibroblast (MDF) cell line was seeded the day before the experiment in a 24-well plate at a cell density of […] per well in a volume of 0.5 mL per well and left to attach overnight. The human monocyte cell line (U937) was seeded on the day of the experiment in a 24-well plate at a cell density of […] per well in a volume of 0.5 mL per well.
The compound was diluted in DMSO with a starting concentration of 10 mM and titrated stepwise with a dilution of 1:5. 0.5 μL of the compound dilution was added to the appropriate well to achieve a final concentration of 10; 2; 0.4; 0.08 and 0.016 μM. A DMSO only well was included as control.
The cells were incubated for 24 h in the presence of the compound at 37° C. and 10% CO2.
After the 24 h incubation period, the medium was removed and cells washed with 0.5 mL PBS. The cells were then lysed directly in 60 μL of 1×SDS gel loading buffer.
The cell lysate was heat-denatured at […] for 10 min. 10 μL of lysate per well were run on 18-well 4-15% Criterion TGX stain free gels (BIO-RAD). The proteins were then transferred onto nitrocellulose membrane with a wet transfer protocol in the Criterion Blotter (BIO-RAD).
Membranes were blocked with 5% skim milk in TBST. Primary antibody against MLKL (clone 3H1, MABC604 Merck) was used at 1:2000 dilution in TBST with 1% BSA and left shaking over night at 4° C. After washes with TBST, the membranes were incubated with goat anti-rat IgG HRP-conjugated antibody (Southern Biotech) in 1% skim milk TBST at 1:10000 dilution for 1 h at room temperature. After TBST washes the bands were imaged on the ChemiDoc MP Imaging System (BIO-RAD) with Immobilion Western Chemiluminescent HRP Substrate Forte (Millipore). The loading control GAPDH was probed for with rabbit anti-GAPDH (CST 14C10) at 1:2000 dilution in 1% BSA TBST over night at 4° C. TBST washes were followed by incubation with goat anti-rabbit IgG HRP-conjugated antibody (Southern Biotech) in 1% skim milk TBST at 1:10000 dilution for 1 h at room temperature followed by TBST washes. The signal was detected as described above.
The band intensity was measured in the ImageLab Software (BIO-RAD) and the MLKL values adjusted for loading with GAPDH. The percentage of degradation was calculated by normalizing the compound treated values to the DMSO only control.

human MLKL (full length), sequence (Q8NB16 whole entry): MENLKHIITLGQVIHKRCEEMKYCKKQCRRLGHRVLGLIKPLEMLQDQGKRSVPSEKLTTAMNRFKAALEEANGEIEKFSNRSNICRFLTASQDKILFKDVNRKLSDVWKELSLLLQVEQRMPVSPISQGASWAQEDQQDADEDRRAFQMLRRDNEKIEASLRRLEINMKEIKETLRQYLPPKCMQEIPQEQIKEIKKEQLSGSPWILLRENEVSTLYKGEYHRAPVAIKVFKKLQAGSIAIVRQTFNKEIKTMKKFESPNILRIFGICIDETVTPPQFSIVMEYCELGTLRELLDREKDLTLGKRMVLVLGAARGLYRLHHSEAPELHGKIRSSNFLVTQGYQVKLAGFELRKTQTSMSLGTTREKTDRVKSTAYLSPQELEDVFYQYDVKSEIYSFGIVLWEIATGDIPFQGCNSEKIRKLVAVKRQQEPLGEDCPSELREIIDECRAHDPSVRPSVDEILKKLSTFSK

SMILES	Kd [1] [µM]	DC50 [3] [µM]	IC50 [2] [µM]
C[C@H](Oc1cc(-c2nn(C)c3c(-c4cnn(C5CCN(C(=O)CCC6CCN(c7cc8c(cc7F)C(=O)N(C7CCC(=O)NC7=O)C8=O)CC6)CC5)c4)cnc(N)c23)ccc1NS(=O)(=O)C(F)F)c1ccc(F)cc1 (stereo partly drawn) [Compound 1087, N-[4-(4-amino-7-{1-[1-(3-{1-[2-(2,6-dioxopiperidin-3-yl)-6-fluoro-1,3-dioxo-2,3-dihydro-1H-isoindol-5-yl]piperidin-4-yl}propanoyl)piperidin-4-yl]-1H-pyrazol-4-yl}-1-methyl-1H-pyrazolo[4,3-c]pyridin-3-yl)-2-[(1S)-1-(4-fluorophenyl)ethoxy]phenyl]-1,1-difluoromethanesulfonamide]	0.01 to 1	< 1	< 1
CN[C@@H](C)C(=O)N[C@H](C(=O)N1CC(NC(=O)CCCCCCCCn2cc(-c3cnc(N)c4c(-c5ccc(NS(=O)(=O)C(F)F)c(O[C@@H](C)c6ccc(F)cc6)c5)nn(C)c34)cn2)C[C@H]1C(=O)Nc1c(F)cccc1F)C(C)(C)C (stereo partly drawn) [Compound 1090, (2S)-4-[9-(4-{4-amino-3-[4-(difluoromethanesulfonamido)-3-[(1S)-1-(4-fluorophenyl)ethoxy]phenyl]-1-methyl-1H-pyrazolo[4,3-c]pyridin-7-yl}-1H-pyrazol-1-yl)nonanamido]-N-(2,6-difluorophenyl)-1-[(2S)-3,3-dimethyl-2-[(2S)-2-(methylamino)propanamido]butanoyl]pyrrolidine-2-carboxamide]	< 0.01	1 to 10	1 to 10

Continued, in another order:

Kd [1] [µM]	DC50 [3] [µM]	SMILES	IC50 [2] [µM]
0.01 to 1	< 1	C[C@H](Oc1cc(-c2nn(C)c3c(-c4cnn(C5CCN(C(=O)C6CN(c7cccc8c7C(=O)N(C7CCC(=O)NC7=O)C8=O)CCO6)CC5)c4)cnc(N)c23)ccc1NS(=O)(=O)C(F)F)c1ccc(F)cc1 (stereo partly drawn) [Compound 1070, N-(4-{4-amino-7-[1-(1-{4-[2-(2,6-dioxopiperidin-3-yl)-1,3-dioxo-2,3-dihydro-1H-isoindol-4-yl]morpholine-2-carbonyl}piperidin-4-yl)-1H-pyrazol-4-yl]-1-methyl-1H-pyrazolo[4,3-c]pyridin-3-yl}-2-[(1S)-1-(4-fluorophenyl)ethoxy]phenyl)-1,1-difluoromethanesulfonamide]	< 1
< 0.01	< 1	C[C@H](Oc1cc(-c2nn(C)c3c(-c4cnn(C5CCN(C(=O)[C@H]6CC[C@@H](Nc7cccc8c7C(=O)N(C7CCC(=O)NC7=O)C8=O)CC6)CC5)c4)cnc(N)c23)ccc1NS(=O)(=O)C(F)F)c1ccc(F)cc1 (stereo partly drawn) [Compound 1071]	< 1
< 0.01	< 1	C[C@H](Oc1cc(-c2nn(C)c3c(-c4cnn(C5CCN(C(=O)[C@H]6C[C@H](Nc7ccc8c(c7)C(=O)N(C7CCC(=O)NC7=O)C8=O)C6)CC5)c4)cnc(N)c23)ccc1NS(=O)(=O)C(F)F)c1ccc(F)cc1 (stereo partly drawn) [Compound 1094, N-{4-[4-amino-1-methyl-7-(1-{1-[(trans)-3-{[2-(2,6-dioxopiperidin-3-yl)-1,3-dioxo-2,3-dihydro-1H-isoindol-5-yl]amino}cyclobutanecarbonyl]piperidin-4-yl}-1H-pyrazol-4-yl)-1H-pyrazolo[4,3-c]pyridin-3-yl]-2-[(1S)-1-(4-fluorophenyl)ethoxy]phenyl}-1,1-difluoromethanesulfonamide]	< 1
< 0.01	< 1	C[C@H](Oc1cc(-c2nn(C)c3c(-c4cnn(C5CCN(C(=O)c6ccc7c(c6)CN(C6CCC(=O)NC6=O)C7=O)CC5)c4)cnc(N)c23)ccc1NS(=O)(=O)C(F)F)c1ccc(F)cc1 (stereo partly drawn) [Compound 1096, N-{4-[4-amino-7-(1-{1-[2-(2,6-dioxopiperidin-3-yl)-1-oxo-2,3-dihydro-1H-isoindole-5-carbonyl]piperidin-4-yl}-1H-pyrazol-4-yl)-1-methyl-1H-pyrazolo[4,3-c]pyridin-3-yl]-2-[(1S)-1-(4-fluorophenyl)ethoxy]phenyl}-1,1-difluoromethanesulfonamide]	1 to 10

Source: US20250115598A1 (Anaxis Pharma Pty Ltd, priority 2021, published 2025)
